Patent publication US9119816B2, “Method for prevention or treatment of diabetic angiogenesis impairment using C-peptide” (KANGWON NATIONAL UNIVERSITY UNIVERSITY-INDUSTRY COOPERATION …, priority 2012, dated 2015)
Entries after “also recorded” stand apart in the source; their conditions may differ.

Experiments:
HUVECs [1] = assay: Inhibition of VEGF-induced tube formation by HUVECs; assay type: cell-based, human; details: 10 ng/ml VEGF, 24-30 h
Experimental: (§1) FIG. 4B is a graph in which tube formation is quantified by confocal microscopy and results are represented as mean±S.D. from three independent experiments after HUVECs were seeded onto a Matrigel layer and incubated for 24-30 h with 10 ng/ml VEGF in the presence of the indicated concentrations of L-NAME, PD98058, and wortmannin.
(§2) The formation of capillary-like networks by HUVECs on growth factor-reduced Matrigel (BD Biosciences, Franklin Lakes, N.J.) was achieved using a method known in the art. Briefly, 24-well culture plates were coated with Matrigel according to the manufacturer's instructions. HUVECs were seeded onto a layer of Matrigel at a density of 4×10^5 cells/well, and treated with VEGF or C-peptide at 37° C. for 24 to 30 h. The degree of tube formation was quantified by measuring the length of tubes from the images using the FV-300 software.
(§3) The roles of ERK1/2, PI3K/Akt, and NO in C-peptide-induced angiogenesis were examined using PD98059, wortmannin, and L-NG-nitroarginine methyl ester (L-NAME), respectively.

HUVECs [2] = assay: Inhibition of C-peptide-induced tube formation by HUVECs; assay type: cell-based, human; details: 0.5 nM C-peptide, 24-30 h
Experimental: as §1, with “4A” for “4B”, “0.5 nM C-peptide (C-pep)” for “10 ng/ml VEGF”, “wortmannin, and” for “wortmannin.”
as §2, §3

HUVECs [3] = assay: Tube formation assay on Matrigel; assay type: cell-based, human; details: 24 to 30 h; for formation of capillary-like networks (tube formation): VEGF 10 ng/ml
Experimental: To examine whether C-peptide can activate angiogenesis in vitro, a tube formation assay was conducted in a Matrigel layer using HUVECs.
as §2

Akt = Akt phosphorylation by Western blot in HUVECs; assay type: cell-based, human; details: for Akt phosphorylation: 0.5 nM C-peptide or 10 ng/ml VEGF, time-dependent
Experimental: (§4) Since the activation of ERK1/2 and Akt is critical for the induction of cell migration and tube formation, an examination was made of the effect of C-peptide on ERK1/2 and AKT phosphorylation in HUVECs.
(§5) Phosphorylation of ERK1/2 and Akt was determined by Western blot analyses. Briefly, HUVECs were scraped off with ice-cold lysis buffer (50 mM Tris-HCl, pH 7.5, 1% Triton X-100, 150 mM NaCl, 1 mM EDTA, 0.1 mM PMSF, 10 μg/mL aprotinin, and 10 μg/mL leupeptin) and centrifuged at 18,000 g for 10 min at 4° C. The resulting cell lysates were separated by SDS-PAGE and transferred to polyvinylidene fluoride membranes.
(§6) Protein bands were visualized by exposure to X-ray films and a chemiluminescent substrate (Pierce, Rockford, Ill.). Levels of protein phosphorylation were normalized using the total amount of the proteins, and are expressed relative to unstimulated control levels (CON) in FIGS. 3A and 3B.

HUVECs [4] = assay: Wound healing (scratch) assay (HUVECs); assay type: cell-based, human; details: 24 h, C-peptide 0.5 nM, VEGF 10 ng/ml, p<0.01
Experimental: (§7) HUVECs and NIH3T3 cells were cultured on 6-well culture plates coated with gelatin. After being obtained, confluent cell layers were starved with low-serum media for 6 h, stained with 1 μM calcein-AM for 30 min, and wounded with a plastic scraper. Low-serum media and cell debris were removed, followed by replenishing the cell culture with 2 ml of low-serum media containing VEGF or C-peptide. Cells were then incubated at 37° C. for 24 h. Migrated cells was counted from images obtained using a confocal microscope (FV-300, Olympus).

ERK1/2 = ERK1/2 phosphorylation by Western blot in HUVECs; assay type: cell-based, human; details: for ERK1/2 phosphorylation: 0.5 nM C-peptide or 10 ng/ml VEGF, time-dependent
Experimental: as §4, §5, §6

[5] = In vivo Matrigel plug assay; details: mice, s.c. 0.5 ml Matrigel with 5 nM C-peptide or 100 ng/ml VEGF, 7 days, compared with control
Experimental: (§8) Male C57BL/6 mice, six weeks old, were purchased from Nara Biotech (Seoul, Korea). The mice were maintained in temperature-controlled clean racks with a 12-h light/dark cycle. All experiments were performed in accordance with the guidelines of the Institutional Animal Care and Use Ethics Committee of Kangwon National University.
A matrigel plug assay was used to examine whether C-peptide can induce angiogenesis in vivo. In this regard, in vivo Matrigel plug assays were performed according to a method known in the art.
Briefly, mice were injected subcutaneously with 0.5 ml of Matrigel containing 100 ng/ml VEGF or 5 nM C-peptide, and 10 U heparin. After 7 days, the Matrigel plugs were removed from the subcutaneous region, and photographed using a camera (Sony, Japan).

NO = assay: Intracellular NO production (DAF-FM DA, confocal microscopy) in HUVECs; assay type: cell-based, human; details: 2 h, 0.5 nM C-peptide (p<0.05) or 10 ng/ml VEGF (p<0.01)
Experimental: Since phosphorylation of Akt increases NO production by VEGF, which is the important factor mediating angiogenesis, an examination was made to see whether C-peptide can stimulate NO production. For this, intracellular NO levels were measured using DAF-FM DA (diaminofluorescein-FM diacetate, Molecular Probes, Eugene, Oreg.) according to a method known in the art.
Briefly, HUVECs were treated with VEGF or C-peptide in phenol red-free low-serum media for indicated times and incubated with 2 μM DAF-FM DA for the final 1 h. Thereafter, the cells were washed with low-serum media before confocal microscropy. Levels of intracellular NO were determined by comparing the fluorescence intensities of treated cells with those of untreated control cells and expressing them as fold differences.

HUVECs [6] = assay: Transwell migration assay (HUVECs); assay type: cell-based, human; details: 12 h; for chemotactic migration of endothelial cells: VEGF 10 ng/ml
Experimental: HUVECs were isolated from the human umbilical cord vein according to a well known process, and cells from passages 3 to 6 were used in the following experiments. Cells were inoculated into M199 culture media (supplemented with 20% FBS, 3 ng/ml bFGF, 5 U/ml heparin, 100 U/ml penicillin, and 100 μg/ml streptomycin) in 2% gelatin-coated coverslips, dishes, or plates, and grown at 37° C. in a humidified 5% CO2 incubator.
For experiments, cells were serum starved for 6 h by incubation in low-serum medium (M199 supplemented as above, but with only 1% FBS), and treated for a suitable time with 10 ng/ml VEGF in the presence or absence of various concentrations of C-peptide.
(§9) Angiogenesis is accompanied by endothelial cell migration and capillary-like network formation. To evaluate the ability of C-peptide to induce angiogenesis by examining whether C-peptide stimulates endothelial cell migration, the chemotactic motility of HUVECs and NIH3T3 cells were assayed using TRANSWELL® Permeable Supports (Costar, Corning, N.Y.).
(§10) In detail, the lower surface of the filters was coated with 5 μl of 2% gelatin. Low-serum media containing VEGF, FGF-2 or C-peptide were placed in the lower wells. HUVECs or NIH3T3 cells were seeded at a density of 1×10^5 cells per 200 μl of the low-serum medium in each of the upper wells, and incubated at 37° C. for 12 h. Cells were fixed with 100% methanol for 15 min, stained with hematoxylin and eosin, and dried. The average number of migrated cells in three randomly chosen fields of view per insert was taken to quantify the extent of migration using a fluorescence inverted microscope (Olympus).

NIH3T3 cells [7] = assay: Wound healing (scratch) assay (NIH3T3 fibroblasts); assay type: cell-based; details: NIH3T3, 24 h; C-peptide 0.5 nM, FGF-2 1 ng/ml; p<0.01
Experimental: as §7
C-peptide-induced cell migration was further investigated by the wound-healing assay. […] FGF-2 also stimulated chemotactic migration and wound healing in fibroblast cells (p<0.01; FIG. 6).

[8] = Hair follicle regeneration and blood vessel formation around wound (whole-mount PECAM-1 immunostaining); assay type: in vivo; details: diabetic mice + C-peptide vs diabetic mice, 14 days after wounding
Experimental: The effect of C-peptide on the regeneration of hair follicles and the formation of blood vessels was observed by whole-mount immunostaining. In this regard, 14 days after wounding, mice were sacrificed, and the dorsal skin was removed for observation of hair follicles and blood vessels. Skin tissues from all the dead mice were excised using a scissor in order to avoid damaging its healing edge, fixed immediately in 4% paraformaldehyde in PBS overnight, and stored overnight in methanol at −20° C. For immunohistochemistry, tissue samples were blocked with 2% BSA in 0.1% TritonX-100 in TBS, and incubated with goat-polyclonal platelet endothelial cell adhesion molecule-I antibody for 2 d, followed by probing with Alexa-546-conjugated rabbit anti-goat IgG and then confocal microscopy.

[9] = Cutaneous wound healing in streptozotocin-induced diabetic mice; assay type: in vivo
Experimental: as §8
Diabetic mice were generated by single intraperitoneal injection of a 100 mM citrate buffer (pH 4.5) containing streptozotocin in (150 mg/kg body weight). After injection, mice were supplied overnight with 10% sucrose to prevent sudden hypoglycemic shock. Sufficient hyperglycemia was observed two days after injection, as measured for blood glucose by the Accu-Check Active blood glucose monitor (Roch Diagnostics, Germany) and for glucosurea by Uriscan (TD Diagnostics, Young-In, Korea). After 1 week, mice with non-fasting blood glucose levels greater than 16 mM, polyuria, and glucosuria were defined diabetic and used for experiment. […]
The dorsal skin of the vertebral column was shaved with Veet cream before creating a wound. Full-thickness skin wounds, 4 mm in diameter, were created on the dorsal surface of the hind limbs with a biopsy punch, and closure was monitored with a digital camera. Open wound size was measured by tracing the wound margin using vernier calipers at regular intervals of two days, and monitored with a digital camera. […]

NIH3T3 cells [10] = assay: Transwell migration assay (NIH3T3 fibroblasts); assay type: cell-based; details: 12 h; for chemotactic migration of fibroblast cells: FGF-2 1 ng/ml
Experimental: NIH3T3 fibroblasts obtained from ATCC (American Type Culture Collection) were grown in a DMEM medium supplemented with 10% calf serum, 100 U/ml penicillin, and 100 μg/ml streptomycin.
NIH3T3 cells were serum starved for 12 hrs in a low-serum medium (DMEM supplemented as above, but with only 0.1% calf serum).
as §9, §10
To elucidate the role of C-peptide in the migration of chemotactic fibroblast cells, NIH3T3 cells were treated with C-peptide for 12 h.

Molecule | effect on VEGF-induced tube formation (HUVECs [1]) | inhibition of C-peptide-stimulated tube formation (HUVECs [2]) | formation of capillary-like networks (tube formation) (HUVECs [3]) | Akt phosphorylation (Akt) | cell migration to the wounded area (HUVECs [4]) | ERK1/2 phosphorylation (ERK1/2) | new blood vessel formation in Matrigel plug [5] | level of intracellular NO (NO) | chemotactic migration of endothelial cells (HUVECs [6]) | cell migration to the wounded area (fibroblasts) (NIH3T3 cells [7]) | chemotactic migration of fibroblast cells (NIH3T3 cells [10]) | also measured
COc1cccc(-c2cc(=O)c3ccccc3o2)c1N [PD98059] | prevented | inhibited |  |  |  |  |  |  |  |  |  | concentration of maximal inhibition of C-peptide-stimulated tube formation (HUVECs [2]): 10 µM
vascular endothelial growth factor [VEGF, reference compound] |  |  | induced | induced | stimulated | induced | similar | higher level | stimulated |  |  | 
C-peptide |  |  | stimulated | induced | significantly stimulated | increased | significantly higher induction | significantly elevated | dose-dependent increase | significantly stimulated | dose-dependent increase | concentration of maximal effect on formation of capillary-like networks (HUVECs [3]): 0.5 nM; regeneration (number) of hair follicles around wound [8]: significant increase; also recorded: increased; formation (number) of blood vessels around wound ([8]; PECAM-1 staining): significant increase; also recorded: increased; wound area versus normal mice ([9]; STZ-diabetic mice, C-peptide 35 pmol/kg/min s.c. osmotic pump, 4 mm wound, 4 and 10 days after skin injury): no significant differences; wound closure compared with diabetic mice ([9]; diabetic mice + C-peptide vs diabetic mice): accelerated; time of maximal effect on Akt phosphorylation (Akt; 0.5 nM C-peptide): 15 min; ERK1/2 activation maintained until (ERK1/2; 0.5 nM C-peptide): 60 min; time of maximal stimulation of ERK1/2 phosphorylation (ERK1/2; 0.5 nM C-peptide): 15 min; concentration of maximal effect on chemotactic migration of fibroblast cells (NIH3T3 cells [10]): 1 nM; concentration of maximal effect on chemotactic migration of endothelial cells (HUVECs [6]): 0.5 nM
COC(=O)[C@@H](N)CCCNC(=N)N[N+](=O)[O-] [L-NAME, L-NG-nitroarginine methyl ester] | prevented | dose-dependent inhibition |  |  |  |  |  |  |  |  |  | 
FGF-2: growth factor used as comparator for fibroblast migration [reference compound] |  |  |  |  |  |  |  |  |  | stimulated | stimulated | 
